Measurements published in patent US4414388A, “1-Oxo-1H-thiazolo[3,2-a]pyrimidine-2-carboxamides” (Pfizer Inc., priority 1981, dated 1983).

Experiments:
[1] = test system: passive cutaneous anaphylaxis (PCA); test: PCA test, oral activity in general; format: in vivo, rat
Method: (§1) The antiallergy property of the compounds of this invention is evaluated by the passive cutaneous anaphylaxis (PCA) test (Ovary, J. Immun., 81, 355, 1958). In the PCA test, normal animals are injected intradermally (i.d.) with antibodies contained in serum obtained from actively sensitized animals. The animals are then challenged intravenously with antigen mixed with a dye such as Evans' Blue. The increased capillary permeability caused by the antigen-antibody reaction causes the dye to leak from the site of the antibody injection. The test animals are then asphyxiated and the intensity of the reaction determined by measuring the diameter and intensity of the blue coloration on the inner surface of the animals' skin.
The ability of agents to interfere with PCA reactions is measured in male Charles River Wistar rats, 170-210 g. Reaginic antiserum, rich in IgE antibodies, is prepared according to Petillo et al., Int. Arch. Allergy, 44, 309 (1973). Hyperimmune antiserum rich in IgG antibodies to hen egg albumin is prepared according to Orange et al., J. Exptl. Med., 127, 767 (1968). Forty-eight hours prior to antigen challenge, the reaginic antiserum is injected intradermally (i.d.) into the shaved skin of a normal rat's back; 5 hours before challenge the hyperimmune antisera is similarly injected. […] The difference is expressed as percent blockage due to the compound employed.

[2] = plasma concentration / oral absorption in dogs; format: in vivo, dog
Method: This is supported by the observations of plasma concentrations of 3 to 7 μg/ml one hour after oral administration of III, 50 to 300 mg/kg.

[3] = test system: isolated guinea pig ileum; test: spasms of isolated guinea pig ileum; conditions: 10^-8 to 10^-4 M
[4] = test system: pentagastrin-stimulated acid output; test: pentagastrin-stimulated acid output in Heidenhain pouch dogs; format: in vivo, dog; conditions: 5 mg/kg, i.v.
rats = test: toleration study in rats, 10 days oral; format: in vivo, rat
Method: Rats were given III orally by gavage at doses of 50, 150 and 300 mg/kg/day for 10 days.

inhaled histamine = test: bronchoconstrictive effects of inhaled histamine; format: in vivo, guinea pig; conditions: 30 mg/kg i.p.
[5] = test system: ulcerogenic effects of aspirin; test: aspirin-induced gastric ulcer; format: in vivo; conditions: po; aspirin 100 mg/kg p.o.
Method: Compound III also protects against the ulcerogenic effects of aspirin, 100 mg/kg p.o. where dose-related effects are seen over the dose range of 10 to 1000 μg/kg, p.o. with an ED50 of 100 μg/kg. Compound III is also active in a phenylbutazone gastric ulcer model where an oral ED50 of 200 μg/kg is observed. […] "Cytoprotective," a term coined recently to describe the antiulcer effects of prostaglandins that are independent of antisecretory activity, [Robert, Advances in Prostaglandin and Thromboxane Research 2, 507 (1976); Miller et al., Gut 20, 75 (1979); Robert et al., Gastroenterology 72, 1121 (1977).] aptly characterizes the effects of compound III.

IgG = test: passive cutaneous anaphylaxis (PCA) test, oral, IgG (hyperimmune antiserum) site; format: in vivo, rat; conditions: Table I, 1 mg./kg.
Method: as §1
The PCA test is a measure of the anti-allergic (especially anti-asthmatic) activity of a compound. Compounds which inhibit a positive PCA test induced by the rat immunochemical counterpart of human immunoglobulin E (IgE), or reagin, are considered to have anti-allergic activity (C. Mota, Ann. N.Y. Acad. Sci., 103, 264 1963). (Reagin is primarily immunoglobulin E [IgE] and is the principal immunoglobulin responsible for allergic asthma, anaphylaxis, hay fever, food sensitivities and certain manifestations of drug sensitivities, although recent evidence ascribes to the IgG class of antibodies a significant role in the mediation of allergic diseases). Such compounds when administered to a sensitized subject, human or animal, prior to the time when the subject comes into contact with antigens or substances to which it is allergic, will prevent the allergic reaction which would otherwise occur. They, therefore, provide a method for the prophylactic treatment of allergy or anaphylactic reactions of a reagin mediated nature.
To put it another way, such compounds block the release of mediators resulting from the antigen-antibody (allergic) reaction as illustrated in the PCA test using rat homocytotropic antibody--a known correlate of human reaginic antibody. Inhibition of reaginic antigen-antibody reactions in rats, the test animal of the PCA test, is regarded as representative of inhibition of human reaginic antigen-antibody reactions which occur during allergic episodes.
The ability of agents to interfere with PCA reactions is measured in male Charles River Wistar rats, 170-210 g. Reaginic antiserum, rich in IgE antibodies, is prepared according to Petillo et al., Int. Arch. Allergy, 44, 309 (1973). Hyperimmune antiserum rich in IgG antibodies to hen egg albumin is prepared according to Orange et al., J. Exptl. Med., 127, 767 (1968). Forty-eight hours prior to antigen challenge, the reaginic antiserum is injected intradermally (i.d.) into the shaved skin of a normal rat's back; 5 hours before challenge the hyperimmune antisera is similarly injected. At a third site 60 mcg. histamine dihydrochloride and 0.5 mcg. serotonin creatinine sulfate are injected i.d. just prior to antigen challenge as a check for antihistaminic, antiserotonin and unspecific types of blockage; the compounds of the instant invention or saline are then administered i.v. and immediately followed by the challenge of 5 mg. egg albumen and 2.5 mg. Evans' Blue dye in saline. In the case of oral administration Evans' Blue dye and egg albumin are given 5 minutes after administration of the drug. Thirty minutes later the animals are asphyxiated using chloroform and the skin of the back removed and reversed for observation. A score is assigned each injection site equal to the product of the diameter of the site in mm. and a grade of 0.1, 0.5, 1, 2, 3 or 4 proportional to intensity of dye coloration. The scores for a given injection site are summed for each group of five animals and compared to the saline treated controls. The difference is expressed as percent blockage due to the compound employed. […]

[6] = oral gavage 50, 150 and 300 mg/kg/day

O=C(Nc1nnn[nH]1)c1cnc2sc3c(n2c1=O)CCCC3 [compound III, N-(5-tetrazolyl)-1-oxo-1H-cyclohexenothiazolo[3,2-a]pyrimidine-2-carboxamide]
oral activity, in words [1]: excellent oral activity | oral absorption, dog ([2]; oral suspensions or capsules): absorbed readily | concentration at 1 h ([2]; plasma, dog, one hour, oral 50 to 300 mg/kg, suspensions or capsules, read-out: plasma concentration one hour after oral administration, dog): 9000 to 26000 ng/mL | antagonism of spasms of isolated guinea pig ileum induced with acetylcholine ([3]; acetylcholine): does not antagonize spasms | antagonism of spasms of isolated guinea pig ileum induced with histamine ([3]; histamine): does not antagonize spasms | antagonism of spasms of isolated guinea pig ileum induced with SRS-A ([3]; slow reacting substance of anaphylaxis (SRS-A)): does not antagonize spasms | pentagastrin-stimulated acid output [4]: does not affect pentagastrin-stimulated acid output | serum glutamic-pyruvic transaminase (rats; highest dose (300 mg/kg/day)): slight increase | changes in clinical chemistry (other than serum glutamic-pyruvic transaminase) (rats; [6]): no changes in clinical chemistry were observed | pathological changes on gross and microscopic evaluation of liver, kidney, heart and lung (rats; [6]): no resultant pathological changes | protection against bronchoconstrictive effects of inhaled histamine (inhaled histamine): not protected | ED50 [5]: 0.1 mg/kg | Oral Activity (% of Protection) of Amides in the PCA Test, IgG 1 mg./kg. (IgG): 45%
